Measurements published in ChEMBL document CHEMBL1201862, “PubChem BioAssay data set” (2004).
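1) Cells in 96-well plates. 2) Compound, 48 h, 5 concentrations. 3) Linear interpolation between surrounding doses. 4) Unreached endpoint = highest concentration. GI50 = concentration required for 50% inhibition of growth.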 The source made the active and inactive calls. Cut-off read from the data, not from the text of the source: active = GI50 up to about 1.1 µM and inactive = higher.

Columns and labels:
Experiment in all cases: NCI anticancer screen, dose series, 48 h
OVCAR-8 = tested on: OVCAR-8
T47D = tested on: T47D
K562 = tested on: K562
NCI/ADR-RES = tested on: NCI/ADR-RES
SR = tested on: SR
786-0 = tested on: 786-0
DU-145 = tested on: DU-145
CCRF-CEM = tested on: CCRF-CEM
UACC-257 = tested on: UACC-257
MDA-N = tested on: MDA-N
SK-OV-3 = tested on: SK-OV-3
MDA-MB-435 = tested on: MDA-MB-435
KM12 = tested on: KM12
HT-29 = tested on: HT-29
HOP-62 = tested on: HOP-62
M14 = tested on: M14
UO-31 = tested on: UO-31
SK-MEL-28 = tested on: SK-MEL-28
RXF 393 = tested on: RXF 393
NCI-H522 = tested on: NCI-H522
HOP-92 = tested on: HOP-92
SN12C = tested on: SN12C
IGROV-1 = tested on: IGROV-1
A498 = tested on: A498
RPMI-8226 = tested on: RPMI-8226
PC-3 = tested on: PC-3
LOX IMVI = tested on: LOX IMVI
TK-10 = tested on: TK-10
SF-539 = tested on: SF-539
SW-620 = tested on: SW-620
Hs-578T = tested on: Hs-578T
HCT-15 = tested on: HCT-15
EKVX = tested on: EKVX
NCI-H23 = tested on: NCI-H23
SK-MEL-2 = tested on: SK-MEL-2
COLO 205 = tested on: COLO 205
HL-60 = tested on: HL-60
MDA-MB-231 = tested on: MDA-MB-231
SF-295 = tested on: SF-295
NCI-H226 = tested on: NCI-H226
OVCAR-4 = tested on: OVCAR-4
OVCAR-5 = tested on: OVCAR-5
A549 = tested on: A549
U-251 = tested on: U-251
SNB-75 = tested on: SNB-75
BT-549 = tested on: BT-549
HCC 2998 = tested on: HCC 2998
Malme-3M = tested on: Malme-3M
HCT-116 = tested on: HCT-116
SF-268 = tested on: SF-268
OVCAR-3 = tested on: OVCAR-3
UACC-62 = tested on: UACC-62
MCF7 = tested on: MCF7
MOLT-4 = tested on: MOLT-4
SK-MEL-5 = tested on: SK-MEL-5
SNB-19 = tested on: SNB-19
ACHN = tested on: ACHN
CAKI-1 = tested on: CAKI-1
NCI-H460 = tested on: NCI-H460

For `N=C(N)NS(=O)(=O)c1ccc(NC(=O)c2cccc3c(NNc4ccc(C(=O)O)cc4)c4ccccc4nc23)cc1`, the GI50 (OVCAR-8) was > 100 µM (inactive), the GI50 (T47D) was 39.6 µM (inactive) and the GI50 (K562) was 50.1 µM (inactive). The GI50 (NCI/ADR-RES) was > 100 µM (inactive), the GI50 (SR) was 33.5 µM (inactive) and the GI50 (786-0) was > 100 µM (inactive). For the same compound, the GI50 (DU-145) was 48.5 µM (inactive), the GI50 (CCRF-CEM) was 25.8 µM (inactive) and the GI50 (UACC-257) was > 100 µM (inactive). The GI50 (MDA-N) was > 100 µM (inactive), the GI50 (SK-OV-3) was 47.2 µM (inactive) and the GI50 (MDA-MB-435) was 95.7 µM (inactive). The GI50 (KM12) was 45.2 µM (inactive), the GI50 (HT-29) was 41.4 µM (inactive) and the GI50 (HOP-62) was > 100 µM (inactive). The GI50 (M14) was > 100 µM (inactive), the GI50 (UO-31) was 32.7 µM (inactive) and the GI50 (SK-MEL-28) was > 100 µM (inactive). For the same compound, the GI50 (RXF 393) was > 100 µM (inactive), the GI50 (NCI-H522) was 51.1 µM (inactive) and the GI50 (HOP-92) was 24.2 µM (inactive). The GI50 (SN12C) was > 100 µM (inactive), the GI50 (IGROV-1) was > 100 µM (inactive) and the GI50 (A498) was 24.4 µM (inactive). For the same compound, the GI50 (RPMI-8226) was > 100 µM (inactive), the GI50 (PC-3) was 46.3 µM (inactive) and the GI50 (LOX IMVI) was 48.4 µM (inactive). The GI50 (TK-10) was > 100 µM (inactive), the GI50 (SF-539) was 71.3 µM (inactive) and the GI50 (SW-620) was > 100 µM (inactive). For the same compound, the GI50 (Hs-578T) was > 100 µM (inactive), the GI50 (HCT-15) was over 100 µM and the GI50 (EKVX) was 26.6 µM (inactive). For the same compound, the GI50 (NCI-H23) was > 100 µM (inactive), the GI50 (SK-MEL-2) was 22.9 µM (inactive) and the GI50 (COLO 205) was 65 µM (inactive). For the same compound, the GI50 (HL-60) was 32.6 µM (inactive), the GI50 (MDA-MB-231) was 61 µM (inactive) and the GI50 (SF-295) was > 100 µM (inactive). The GI50 (NCI-H226) was 64 µM (inactive), the GI50 (OVCAR-4) was > 100 µM (inactive) and the GI50 (OVCAR-5) was > 100 µM (inactive). For the same compound, the GI50 (A549) was > 100 µM (inactive), the GI50 (U-251) was 34.6 µM (inactive) and the GI50 (SNB-75) was > 100 µM (inactive). For the same compound, the GI50 (BT-549) was > 100 µM (inactive), the GI50 (HCC 2998) was 52.2 µM (inactive) and the GI50 (Malme-3M) was 93.1 µM (inactive). The GI50 (HCT-116) was 59 µM (inactive), the GI50 (SF-268) was 58.7 µM (inactive) and the GI50 (OVCAR-3) was 46.7 µM (inactive). The GI50 (UACC-62) was 70.1 µM (inactive), the GI50 (MCF7) was > 100 µM (inactive) and the GI50 (MOLT-4) was 44.9 µM (inactive). For the same compound, the GI50 (SK-MEL-5) was 99.1 µM (inactive), the GI50 (SNB-19) was 57.8 µM (inactive) and the GI50 (ACHN) was > 100 µM (inactive). The GI50 (CAKI-1) was > 100 µM (inactive) and the GI50 (NCI-H460) was 67.3 µM (inactive).
